One compound from US20250248924A1, “COMPOUNDS FROM FRUIT SEED EXTRACTS FOR MELANIN REDUCTION IN SKIN” (priority 2024, published 2025) can be followed below.

One data set in a line: Solubility in solvents. The data set is classed as physicochemical. The text has this:
A 2.5 gram sample of a red raspberry seed extract in a dry powder form was split into two fractions, one combined 1.25 grams of the dry extract with 11.25 grams of water to create a 10% aqueous solution of the extract. […] Combining 1.25 grams of the dry extract with about 11.25 grams of isopropyl alcohol (91%) produced an about 10% alcohol solution.
Using pure water was explored in extraction experiments with cranberry seed powder. The advantages of using water are essentially zero cost and toxicity. It is also a very polar solvent and will not extract any residual oils (which are very non-polar compounds) from the seed powders. The limitations of using water are that it gives quite low yields in extractions at room temperature and only dissolved the most polar compounds from the seed powders, leaving most of the medium polarity materials behind. It is possible that this could be improved by heating. […] Simply filtering the mixture through inexpensive filter paper by gravity or mild vacuum will be unsuccessful. One solution that worked was mixing in filtering media (diatomaceous earth) and then vacuum filtering through a bed of the same filtering medium. To completely clarify the mixture, an additional treatment with activated carbon and further vacuum filtering through a bed of diatomaceous earth was effective. Given the limitations of water extraction, it was not used extensively. […]

Data set [1] in a line: Solubility in the enzyme assay. In kind it is physicochemical. The following applies: aqueous pH 7.00 phosphate buffer with DMSO stock.

As to `O=c1oc2c(O)c(O)cc3c(=O)oc4c(O)c(O)cc1c4c23` [ellagic acid], the figures for the solubility in water entry in the data set “Solubility in solvents” (high pH) and in the data set “Solubility in solvents” (neutral pH) were “very water soluble” and “only slightly soluble”, respectively. Further, the “solubility in the enzyme assay” value in data set [1] is recorded as “highly insoluble”.
